Each molecule was assayed on KM12 cells (assay: Cell viability assay (CellTiter-Glo) in KM12 cells). Conditions: Homo sapiens, 72 h; Table 3; KM12 cell viability, CellTiter-Glo, 3 days; read-out: IC50.
Format: cell-based
`O=C(CN1CCN(c2cccc(-c3cnc4ccc(N5CCC[C@@H]5c5cccc(F)c5)nn34)n2)CC1)NCCOCCOCCOCCOCCNc1ccc2c(c1)C(=O)N(C1CCC(=O)NC1=O)C2=O` (stereo partly drawn) [TR-125, N-(14-((2-(2,6-dioxopiperidin-3-yl)-1,3-dioxoisoindolin-5-yl)amino)-3,6,9,12-tetraoxatetradecyl)-2-(4-(6-(6-((R)-2-(3-fluorophenyl)pyrrolidin-1-yl)imidazo[1,2-b]pyridazin-3-yl)pyridin-2-yl)piperazin-1-yl)acetamide] gave an IC50 of 2.8 nM.
With `O=C(CN1CCN(c2cccc(-c3cnc4ccc(N5CCC[C@@H]5c5cccc(F)c5)nn34)n2)CC1)NCCCCCCCNc1ccc2c(c1)C(=O)N(C1CCC(=O)NC1=O)C2=O` (stereo partly drawn) [TR-126, N-(7-((2-(2,6-dioxopiperidin-3-yl)-1,3-dioxoisoindolin-5-yl)amino)heptyl)-2-(4-(6-(6-((R)-2-(3-fluorophenyl)pyrrolidin-1-yl)imidazo[1,2-b]pyridazin-3-yl)pyridin-2-yl)piperazin-1-yl)acetamide] the IC50 was 12.5 nM.
Molecule `O=C(CN1CCN(c2cccc(-c3cnc4ccc(N5CCC[C@@H]5c5cccc(F)c5)nn34)n2)CC1)NCCCNc1ccc2c(c1)C(=O)N(C1CCC(=O)NC1=O)C2=O` (stereo partly drawn) [TR-127, N-(3-((2-(2,6-dioxopiperidin-3-yl)-1,3-dioxoisoindolin-5-yl)amino)propyl)-2-(4-(6-(6-((R)-2-(3-fluorophenyl)pyrrolidin-1-yl)imidazo[1,2-b]pyridazin-3-yl)pyridin-2-yl)piperazin-1-yl)acetamide] has an IC50 of 2.7 nM.
With `O=C(CN1CCN(c2cccc(-c3cnc4ccc(N5CCC[C@@H]5c5cccc(F)c5)nn34)n2)CC1)NCCCCCCNc1ccc2c(c1)C(=O)N(C1CCC(=O)NC1=O)C2=O` (stereo partly drawn) [TR-128, N-(6-((2-(2,6-dioxopiperidin-3-yl)-1,3-dioxoisoindolin-5-yl)amino)hexyl)-2-(4-(6-(6-((R)-2-(3-fluorophenyl)pyrrolidin-1-yl)imidazo[1,2-b]pyridazin-3-yl)pyridin-2-yl)piperazin-1-yl)acetamide] the IC50 was 3.3 nM.
With `O=C(CN1CCN(c2cccc(-c3cnc4ccc(N5CCC[C@@H]5c5cccc(F)c5)nn34)n2)CC1)NCCOCCOCCOCCNc1ccc2c(c1)C(=O)N(C1CCC(=O)NC1=O)C2=O` (stereo partly drawn) [TR-129, N-(2-(2-(2-(2-((2-(2,6-dioxopiperidin-3-yl)-1,3-dioxoisoindolin-5-yl)amino)ethoxy)ethoxy)ethoxy)ethyl)-2-(4-(6-(6-((R)-2-(3-fluorophenyl)pyrrolidin-1-yl)imidazo[1,2-b]pyridazin-3-yl)pyridin-2-yl)piperazin-1-yl)acetamide] the IC50 was 4.4 nM.
`O=C(CN1CCN(c2cccc(-c3cnc4ccc(N5CCC[C@@H]5c5cccc(F)c5)nn34)n2)CC1)NCCNc1ccc2c(c1)C(=O)N(C1CCC(=O)NC1=O)C2=O` (stereo partly drawn) [TR-130, N-(2-((2-(2,6-dioxopiperidin-3-yl)-1,3-dioxoisoindolin-5-yl)amino)ethyl)-2-(4-(6-(6-((R)-2-(3-fluorophenyl)pyrrolidin-1-yl)imidazo[1,2-b]pyridazin-3-yl)pyridin-2-yl)piperazin-1-yl)acetamide] was tested, and the IC50 was 0.9 nM.
For `O=C(CN1CCN(c2cccc(-c3cnc4ccc(N5CCC[C@@H]5c5cccc(F)c5)nn34)n2)CC1)NCCCCCNc1ccc2c(c1)C(=O)N(C1CCC(=O)NC1=O)C2=O` (stereo partly drawn) [TR-131, N-(5-((2-(2,6-dioxopiperidin-3-yl)-1,3-dioxoisoindolin-5-yl)amino)pentyl)-2-(4-(6-(6-((R)-2-(3-fluorophenyl)pyrrolidin-1-yl)imidazo[1,2-b]pyridazin-3-yl)pyridin-2-yl)piperazin-1-yl)acetamide], the IC50 was 2.7 nM.
In the case of `O=C(CN1CCN(c2cccc(-c3cnc4ccc(N5CCC[C@@H]5c5cccc(F)c5)nn34)n2)CC1)NCCOCCOCCOCCOCCOCCNc1ccc2c(c1)C(=O)N(C1CCC(=O)NC1=O)C2=O` (stereo partly drawn) [TR-132, N-(17-((2-(2,6-dioxopiperidin-3-yl)-1,3-dioxoisoindolin-5-yl)amino)-3,6,9,12,15-pentaoxaheptadecyl)-2-(4-(6-(6-((R)-2-(3-fluorophenyl)pyrrolidin-1-yl)imidazo[1,2-b]pyridazin-3-yl)pyridin-2-yl)piperazin-1-yl)acetamide], the IC50 is reported as 4.4 nM.
`O=C(CN1CCN(c2cccc(-c3cnc4ccc(N5CCC[C@@H]5c5cccc(F)c5)nn34)n2)CC1)NCCCCCCCCNc1ccc2c(c1)C(=O)N(C1CCC(=O)NC1=O)C2=O` (stereo partly drawn) [TR-133, N-(8-((2-(2,6-dioxopiperidin-3-yl)-1,3-dioxoisoindolin-5-yl)amino)octyl)-2-(4-(6-(6-((R)-2-(3-fluorophenyl)pyrrolidin-1-yl)imidazo[1,2-b]pyridazin-3-yl)pyridin-2-yl)piperazin-1-yl)acetamide] was tested, and the IC50 was 22.8 nM.
Work on `O=C(CN1CCN(c2cccc(-c3cnc4ccc(N5CCC[C@@H]5c5cccc(F)c5)nn34)n2)CC1)NCCOCCOCCNc1ccc2c(c1)C(=O)N(C1CCC(=O)NC1=O)C2=O` (stereo partly drawn) [TR-134, N-(2-(2-(2-((2-(2,6-dioxopiperidin-3-yl)-1,3-dioxoisoindolin-5-yl)amino)ethoxy)ethoxy)ethyl)-2-(4-(6-(6-((R)-2-(3-fluorophenyl)pyrrolidin-1-yl)imidazo[1,2-b]pyridazin-3-yl)pyridin-2-yl)piperazin-1-yl)acetamide] yielded an IC50 of 5.6 nM.
`O=C(CN1CCN(c2cccc(-c3cnc4ccc(N5CCC[C@@H]5c5cccc(F)c5)nn34)n2)CC1)NCCOCCNc1ccc2c(c1)C(=O)N(C1CCC(=O)NC1=O)C2=O` (stereo partly drawn) [TR-135, N-(2-(2-((2-(2,6-dioxopiperidin-3-yl)-1,3-dioxoisoindolin-5-yl)amino)ethoxy)ethyl)-2-(4-(6-(6-((R)-2-(3-fluorophenyl)pyrrolidin-1-yl)imidazo[1,2-b]pyridazin-3-yl)pyridin-2-yl)piperazin-1-yl)acetamide] gave an IC50 of 0.9 nM.
For `O=C1CCC(N2C(=O)c3ccc(NCCCCCCCC(=O)N4CCN(c5ccc(C(=O)Nc6n[nH]c7ccc(Cc8cc(F)cc(F)c8)cc67)c(NC6CCOCC6)c5)CC4)cc3C2=O)C(=O)N1` (centres unmarked) [TR-136, N-(5-(3,5-Difluorobenzyl)-1H-indazol-3-yl)-4-(4-(8-((2-(2,6-dioxopiperidin-3-yl)-1,3-dioxoisoindolin-5-yl)amino)octanoyl)piperazin-1-yl)-2-((tetrahydro-2H-pyran-4-yl)amino)benzamide], the IC50 was 23.6 nM.
Work on `O=C1CCC(N2C(=O)c3ccc(NCCOCCOCCOCCOCCOCCC(=O)N4CCN(c5ccc(C(=O)Nc6n[nH]c7ccc(Cc8cc(F)cc(F)c8)cc67)c(NC6CCOCC6)c5)CC4)cc3C2=O)C(=O)N1` (centres unmarked) [TR-137, N-(5-(3,5-Difluorobenzyl)-1H-indazol-3-yl)-4-(4-(1-((2-(2,6-dioxopiperidin-3-yl)-1,3-dioxoisoindolin-5-yl)amino)-3,6,9,12,15-pentaoxaoctadecan-18-oyl)piperazin-1-yl)-2-((tetrahydro-2H-pyran-4-yl)amino)benzamide] yielded an IC50 of 2.5 nM.
Work on `O=C1CCC(N2C(=O)c3ccc(NCCCCCC(=O)N4CCN(c5ccc(C(=O)Nc6n[nH]c7ccc(Cc8cc(F)cc(F)c8)cc67)c(NC6CCOCC6)c5)CC4)cc3C2=O)C(=O)N1` (centres unmarked) [TR-138, N-(5-(3,5-Difluorobenzyl)-1H-indazol-3-yl)-4-(4-(6-((2-(2,6-dioxopiperidin-3-yl)-1,3-dioxoisoindolin-5-yl)amino)hexanoyl)piperazin-1-yl)-2-((tetrahydro-2H-pyran-4-yl)amino)benzamide] yielded an IC50 of 31.1 nM.
`O=C1CCC(N2C(=O)c3ccc(NCCCCCCC(=O)N4CCN(c5ccc(C(=O)Nc6n[nH]c7ccc(Cc8cc(F)cc(F)c8)cc67)c(NC6CCOCC6)c5)CC4)cc3C2=O)C(=O)N1` (centres unmarked) [TR-139, N-(5-(3,5-Difluorobenzyl)-1H-indazol-3-yl)-4-(4-(7-((2-(2,6-dioxopiperidin-3-yl)-1,3-dioxoisoindolin-5-yl)amino)heptanoyl)piperazin-1-yl)-2-((tetrahydro-2H-pyran-4-yl)amino)benzamide] showed an IC50 of 27.1 nM.
Molecule `O=C1CCC(N2C(=O)c3ccc(NCCOCCOCCOCCOCCC(=O)N4CCN(c5ccc(C(=O)Nc6n[nH]c7ccc(Cc8cc(F)cc(F)c8)cc67)c(NC6CCOCC6)c5)CC4)cc3C2=O)C(=O)N1` (centres unmarked) [TR-140, N-(5-(3,5-Difluorobenzyl)-1H-indazol-3-yl)-4-(4-(1-((2-(2,6-dioxopiperidin-3-yl)-1,3-dioxoisoindolin-5-yl)amino)-3,6,9,12-tetraoxapentadecan-15-oyl)piperazin-1-yl)-2-((tetrahydro-2H-pyran-4-yl)amino)benzamide] has an IC50 of 1.6 nM.
With `O=C1CCC(N2C(=O)c3ccc(NCCOCCOCCC(=O)N4CCN(c5ccc(C(=O)Nc6n[nH]c7ccc(Cc8cc(F)cc(F)c8)cc67)c(NC6CCOCC6)c5)CC4)cc3C2=O)C(=O)N1` (centres unmarked) [TR-141, N-(5-(3,5-Difluorobenzyl)-1H-indazol-3-yl)-4-(4-(3-(2-(2-((2-(2,6-dioxopiperidin-3-yl)-1,3-dioxoisoindolin-5-yl)amino)ethoxy)ethoxy)propanoyl)piperazin-1-yl)-2-((tetrahydro-2H-pyran-4-yl)amino)benzamide] the IC50 was 2.6 nM.
`O=C1CCC(N2C(=O)c3ccc(NCCCCC(=O)N4CCN(c5ccc(C(=O)Nc6n[nH]c7ccc(Cc8cc(F)cc(F)c8)cc67)c(NC6CCOCC6)c5)CC4)cc3C2=O)C(=O)N1` (centres unmarked) [TR-142, N-(5-(3,5-Difluorobenzyl)-1H-indazol-3-yl)-4-(4-(5-((2-(2,6-dioxopiperidin-3-yl)-1,3-dioxoisoindolin-5-yl)amino)pentanoyl)piperazin-1-yl)-2-((tetrahydro-2H-pyran-4-yl)amino)benzamide] was tested, and the IC50 was 3.4 nM.
`O=C1CCC(N2C(=O)c3ccc(NCCOCCC(=O)N4CCN(c5ccc(C(=O)Nc6n[nH]c7ccc(Cc8cc(F)cc(F)c8)cc67)c(NC6CCOCC6)c5)CC4)cc3C2=O)C(=O)N1` (centres unmarked) [TR-143] was tested, and the IC50 was 5.6 nM.
Work on `O=C1CCC(N2C(=O)c3ccc(NCC(=O)N4CCN(c5ccc(C(=O)Nc6n[nH]c7ccc(Cc8cc(F)cc(F)c8)cc67)c(NC6CCOCC6)c5)CC4)cc3C2=O)C(=O)N1` (centres unmarked) [TR-144, N-(5-(3,5-Difluorobenzyl)-1H-indazol-3-yl)-4-(4-((2-(2,6-dioxopiperidin-3-yl)-1,3-dioxoisoindolin-5-yl)glycyl)piperazin-1-yl)-2-((tetrahydro-2H-pyran-4-yl)amino)benzamide] yielded an IC50 of 2.2 nM.

Reference: patent publication US12065442B2, “Tropomyosin receptor kinase (TRK) degradation compounds and methods of use” (Cullgen (Shanghai), Inc., priority 2018, dated 2024)
